Experiment in all cases: NCI-60 cell line screen, 48 h
The test system of assay [1] is 786-0 renal.
For assay [2], the system named is A498 renal.
For assay [3], the system named is BT-549 breast.
For assay [4], the system named is EKVX NSCLC.
For assay [5], the system named is HCT-15 colon.
Assay [6] has as its system NCI-H23 lung.
Assay [7] has as its system NCI-H460 lung.
Assay [8] concerns OVCAR-8 ovarian.
In assay [9] the test system is SF-268 CNS.
Assay [10] relates to U251 CNS.

Values joined by “and” are separate entries in the source; they are usually repeats but may differ in a detail not shown here. Identical values can stand only once.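 96-well plates; 48 h exposure; 5 concentrations. Endpoints by linear interpolation between flanking doses. Not reached: highest tested concentration assigned. Abbreviation: GI50, concentration required for 50% inhibition of growth. TGI denotes the concentration required for complete inhibition of growth.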

For `N=C1C(c2nc3ccccc3s2)=C(O)CN1c1ccc(Cl)cc1Cl`, the GI50 is 16.9 µM in [1]; 12.5 µM in assay [2]; 17.8 µM in [3]; 29.9 µM in assay [4]; 3.65 µM in assay [5]; 2.59 µM in assay [6]. Also, the GI50 is 33.4 µM in assay [7], 18.2 µM in assay [8], 89 µM in assay [9] and 10.1 µM in [10]. The TGI came to 48.2 µM in assay [1]; 50.7 µM in assay [2]; 49.6 µM in assay [3]; 85.5 µM in [4]; 22 µM in assay [5]; 6.6 µM in assay [6]. For the same molecule, the TGI is > 100 µM in assay [7], 47.1 µM in assay [8], > 100 µM in [9] and 29.9 µM in assay [10].
Take `COc1cc2c(Nc3ccc(Br)cc3F)ncnc2cc1OCC1CCN(C)CC1`: the GI50 is 2.96 µM and 3.01 µM in assay [1]; 0.712 µM and 2.03 µM in [2]; 7.38 µM and > 10 µM in assay [3]; 0.286 µM and 0.401 µM in assay [4]; 2.27 µM and 2.95 µM in [5]; 9.57 µM and > 10 µM in assay [6]. Moreover, the GI50 in assay [7] was 4.69 µM and 9.98 µM; in assay [8], 5 µM and 7.4 µM; in [9], 3.24 µM and 6.18 µM; in assay [10], 4.81 µM and 7.68 µM. Further, the TGI in assay [1] was 13.1 µM and > 10 µM; in assay [2] it was 4.36 µM and > 10 µM; in assay [3] it was 19.7 µM and > 10 µM; in assay [4], 10.3 µM and > 10 µM; in assay [5] it was 11.5 µM and > 10 µM; in assay [6] it was 21.9 µM and > 10 µM. Further, the TGI in assay [7] was 17 µM and > 10 µM; in assay [8], 18 µM and > 10 µM; in assay [9], 15 µM and > 10 µM; in assay [10], 17.1 µM and > 10 µM.
`CNC(=O)c1cncc(/C=C/c2c(C)cccc2C)c1`: the GI50 in assay [1] is > 25 µM; in assay [2], 8.95 µM; in [3] it was > 25 µM; in [4], > 25 µM; in [5], > 25 µM; in assay [6], > 25 µM. The GI50 in assay [7], in [8], in assay [9] and in assay [10] was > 25 µM each time. Further, the TGI in assay [1], in assay [2], in assay [3], in assay [4], in [5] and in assay [6] was > 25 µM throughout. Besides, the TGI in assay [7], in [8], in [9] and in assay [10] was > 25 µM in each case.
For the molecule `NCC1OC(n2cnc3c(=O)[nH]c(N)nc32)C(O)C1O` (stereo not given), the TGI in [1], in assay [2], in [3], in assay [4], in assay [5] and in assay [6] was > 100 µM throughout. The TGI in assay [7], in assay [8], in assay [9] and in assay [10] was > 100 µM in each case.
Consider `COc1ccc(C(=O)C(Br)C(Br)C(=O)O)cc1` (stereo not given), for which the TGI is 97.6 µM in assay [1]; > 100 µM in assay [2]; 63.7 µM in assay [3]; > 100 µM in assay [4]; > 100 µM in assay [5]; > 100 µM in assay [6]. Besides, the TGI in [7], in assay [8], in assay [9] and in assay [10] was > 100 µM throughout.
With `COc1c(B(O)O)cccc1-c1nc2c(F)cc3[nH]ncc3c2c2c1CCCC2`, the GI50 in assay [1] is 1.33 µM; in [2] it was 0.172 µM; in assay [3], 0.116 µM; in assay [4], 2.61 µM; in assay [5] it was 2.24 µM; in assay [6], 1.72 µM. Further, the GI50 in [7] was 1.79 µM; in [8] it was 2.03 µM; in [9] it was 2.1 µM; in [10], 1.77 µM. Further, the TGI in assay [1] amounted to 17.6 µM; in assay [2], 3.31 µM; in assay [3] it was 3.02 µM; in [4] it was 34.3 µM; in assay [5] it was 27.6 µM; in assay [6], 10.8 µM. Also, the TGI was 11.9 µM in assay [7], > 100 µM in [8], 18.8 µM in assay [9] and > 44.9 µM in assay [10].
As for `O=S(=O)(NCCCNc1cc(-c2cn(-c3ccccc3)nc2-c2cccc(O)c2)ccn1)c1cccc2ccccc12`, the GI50 in [1] was 1.59 µM; in assay [2] it was 1.09 µM; in assay [3] it was 2.47 µM; in assay [4] it was 3.99 µM; in [5], 1.8 µM; in assay [6], 2.89 µM. Besides, the GI50 is 2.89 µM in assay [7], 5.46 µM in assay [8], 3.02 µM in [9] and 1.78 µM in assay [10]. In addition, the TGI in [1] is 3.57 µM; in [2], 6.62 µM; in assay [3] it was 7.58 µM; in [4] it was > 100 µM; in assay [5] it was 6.59 µM; in [6], > 100 µM. In addition, the TGI in assay [7] is 10.4 µM; in [8], > 100 µM; in assay [9], 40.8 µM; in assay [10] it was 13.1 µM.
As to `COc1cc([C@@H]2c3cc4c(cc3[C@H](OC(C)=O)[C@H]3COC(=O)[C@H]23)OCO4)cc(OC)c1OC`, the GI50 in assay [1] was 0.0341 µM; in [2], 0.0139 µM; in assay [3], 0.0311 µM; in assay [4], 0.0568 µM; in [5], 0.0316 µM; in assay [6], 0.053 µM. Besides, the GI50 is 0.0317 µM in [7], 0.0361 µM in assay [8], 0.0484 µM in assay [9] and 0.0352 µM in [10]. In addition, the TGI in [1] is > 100 µM; in [2], 0.065 µM; in assay [3] it was 21.9 µM; in assay [4], > 100 µM; in assay [5] it was > 100 µM; in assay [6] it was > 100 µM. In addition, the TGI in [7], in [8], in [9] and in assay [10] was > 100 µM in each case.
